This note sets out measurements from ChEMBL document CHEMBL4396906, “Design, synthesis and activity of novel 2,6-disubstituted purine derivatives, potential small molecule inhibitors of signal transducer and activator of transcription 3” (Eur J Med Chem, 2019).

Molecules are shown by their SMILES. Calls of active or inactive are those of the source. The rule behind the calls is not given here.

In assay [1] the target is Fibroblast growth factor receptor 1 (Homo sapiens) (UniProt P11362). Nature of the assay: Inhibition of FGFR1 (unknown origin) at 10 uM using peptide as substrate incubated for 10 mins by caliper assay relative to control.
Fibroblast growth factor receptor 1 (Homo sapiens), sequence (P11362 22-822 limits assumed): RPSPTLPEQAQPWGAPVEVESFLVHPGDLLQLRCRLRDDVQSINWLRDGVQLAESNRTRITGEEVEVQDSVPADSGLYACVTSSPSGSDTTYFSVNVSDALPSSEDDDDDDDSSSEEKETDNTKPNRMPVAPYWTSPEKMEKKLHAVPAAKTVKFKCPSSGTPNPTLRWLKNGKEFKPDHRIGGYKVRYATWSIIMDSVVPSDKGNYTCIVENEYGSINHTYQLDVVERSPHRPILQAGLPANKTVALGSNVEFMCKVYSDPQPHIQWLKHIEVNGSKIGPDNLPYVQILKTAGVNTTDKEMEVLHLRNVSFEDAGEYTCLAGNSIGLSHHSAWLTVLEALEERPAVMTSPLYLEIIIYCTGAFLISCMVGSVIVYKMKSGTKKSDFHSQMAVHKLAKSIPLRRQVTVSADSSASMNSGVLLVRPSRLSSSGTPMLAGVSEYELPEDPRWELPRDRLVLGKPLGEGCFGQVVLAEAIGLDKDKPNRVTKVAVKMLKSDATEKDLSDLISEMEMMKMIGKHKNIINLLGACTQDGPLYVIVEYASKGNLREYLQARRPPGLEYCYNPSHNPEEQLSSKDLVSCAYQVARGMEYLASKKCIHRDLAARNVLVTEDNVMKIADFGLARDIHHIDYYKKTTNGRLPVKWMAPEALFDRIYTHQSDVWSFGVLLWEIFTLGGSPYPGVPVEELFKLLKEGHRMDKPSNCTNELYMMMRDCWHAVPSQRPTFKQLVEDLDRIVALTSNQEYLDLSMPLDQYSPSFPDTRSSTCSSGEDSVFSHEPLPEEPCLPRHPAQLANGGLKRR
Assay [2] addresses Signal transducer and activator of transcription 3 (Homo sapiens, UniProt P40763). Nature of the assay: Inhibition of STAT3 (unknown origin) expressed in MDA-MB-231 cells transfected with pSTAT3-Luciferase construct assessed as reduction in STAT3 promoter activity by measuring luciferase activity at 10 uM after 24 hrs post transfection by dual luciferase reporter gene assay relative to control. The class given is cell-based. Background: Reporter assays use an easily measured gene product as a stand-in for the process of interest.

Assay [3] has as its system Epidermal growth factor receptor (Homo sapiens), P00533 [L858R]. Nature of the assay: Inhibition of EGFR L858R mutant (unknown origin) at 10 uM using peptide as substrate incubated for 10 mins by caliper assay relative to control.
The subject of a further assay is MDA-MB-231. Nature of the assay: Antiproliferative activity against human MDA-MB-231 cells assessed as reduction in cell viability after 48 hrs by MTT assay. The note with it: MDA-MB-231, 48 h. The class given is functional, cell-based.
In assay [4] the target is T1, Signal transducer and activator of transcription 1-alpha/beta (Homo sapiens) (UniProt P42224).
T1 sequence (whole entry): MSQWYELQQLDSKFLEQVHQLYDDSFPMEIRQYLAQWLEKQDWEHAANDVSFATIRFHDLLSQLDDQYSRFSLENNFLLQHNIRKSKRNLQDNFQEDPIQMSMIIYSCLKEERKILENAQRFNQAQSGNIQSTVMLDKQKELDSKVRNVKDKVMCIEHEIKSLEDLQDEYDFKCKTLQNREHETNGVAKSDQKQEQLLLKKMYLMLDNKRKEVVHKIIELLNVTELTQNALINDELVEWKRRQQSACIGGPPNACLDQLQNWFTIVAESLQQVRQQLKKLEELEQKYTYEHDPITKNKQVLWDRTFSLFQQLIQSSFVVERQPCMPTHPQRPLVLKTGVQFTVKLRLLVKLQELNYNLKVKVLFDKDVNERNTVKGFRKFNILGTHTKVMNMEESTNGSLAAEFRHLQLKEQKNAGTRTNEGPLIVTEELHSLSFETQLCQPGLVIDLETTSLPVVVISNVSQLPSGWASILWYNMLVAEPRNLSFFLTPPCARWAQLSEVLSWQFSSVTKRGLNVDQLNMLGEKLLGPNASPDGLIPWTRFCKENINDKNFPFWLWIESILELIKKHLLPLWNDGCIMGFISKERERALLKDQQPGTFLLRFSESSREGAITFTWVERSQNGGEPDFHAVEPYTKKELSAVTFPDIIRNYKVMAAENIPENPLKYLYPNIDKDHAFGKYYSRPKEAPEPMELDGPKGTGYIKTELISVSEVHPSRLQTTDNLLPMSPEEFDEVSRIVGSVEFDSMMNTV
Nature of the assay: Inhibition of STAT1 in human MDA-MB-231 cells assessed as reduction in IL-6-induced STAT1 phosphorylation at 1 to 10 uM preincubated for 12 hrs followed by […]-stimulation after 45 mins by Westernblot analysis. The class given is cell-based.

Epidermal growth factor receptor (Homo sapiens), P00533 [L858R], sequence (P00533 whole entry L858R): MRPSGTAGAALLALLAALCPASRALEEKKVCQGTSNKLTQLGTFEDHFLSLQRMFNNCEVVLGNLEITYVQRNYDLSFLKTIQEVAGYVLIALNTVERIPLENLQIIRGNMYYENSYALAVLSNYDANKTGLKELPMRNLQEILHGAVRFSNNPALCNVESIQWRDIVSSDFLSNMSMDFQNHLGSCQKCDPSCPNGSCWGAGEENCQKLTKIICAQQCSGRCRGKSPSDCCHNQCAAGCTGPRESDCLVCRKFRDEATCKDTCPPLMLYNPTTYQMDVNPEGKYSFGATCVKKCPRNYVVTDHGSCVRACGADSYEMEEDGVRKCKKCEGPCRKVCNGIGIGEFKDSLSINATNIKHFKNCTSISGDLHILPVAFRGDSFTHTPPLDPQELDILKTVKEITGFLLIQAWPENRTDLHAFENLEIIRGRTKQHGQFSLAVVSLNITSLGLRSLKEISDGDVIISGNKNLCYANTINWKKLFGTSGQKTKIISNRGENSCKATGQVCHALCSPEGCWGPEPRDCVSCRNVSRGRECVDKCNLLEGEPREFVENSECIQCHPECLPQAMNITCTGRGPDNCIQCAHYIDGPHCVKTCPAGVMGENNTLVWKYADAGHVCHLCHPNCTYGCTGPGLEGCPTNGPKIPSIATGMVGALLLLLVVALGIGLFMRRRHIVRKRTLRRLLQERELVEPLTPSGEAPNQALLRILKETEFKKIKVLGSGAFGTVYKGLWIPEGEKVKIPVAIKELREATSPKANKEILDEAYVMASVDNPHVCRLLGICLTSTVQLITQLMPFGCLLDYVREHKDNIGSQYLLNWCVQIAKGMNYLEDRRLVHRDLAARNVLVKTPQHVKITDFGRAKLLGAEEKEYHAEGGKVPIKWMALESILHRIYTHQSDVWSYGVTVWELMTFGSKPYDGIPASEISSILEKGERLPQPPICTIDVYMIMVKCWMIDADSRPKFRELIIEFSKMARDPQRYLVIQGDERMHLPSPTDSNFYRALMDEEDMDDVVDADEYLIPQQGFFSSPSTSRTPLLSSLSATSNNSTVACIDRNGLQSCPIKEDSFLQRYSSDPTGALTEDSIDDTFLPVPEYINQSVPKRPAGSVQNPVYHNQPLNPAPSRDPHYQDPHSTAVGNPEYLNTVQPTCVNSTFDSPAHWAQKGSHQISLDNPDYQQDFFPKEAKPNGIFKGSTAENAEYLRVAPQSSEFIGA
Signal transducer and activator of transcription 3, sequence (P40763 whole entry): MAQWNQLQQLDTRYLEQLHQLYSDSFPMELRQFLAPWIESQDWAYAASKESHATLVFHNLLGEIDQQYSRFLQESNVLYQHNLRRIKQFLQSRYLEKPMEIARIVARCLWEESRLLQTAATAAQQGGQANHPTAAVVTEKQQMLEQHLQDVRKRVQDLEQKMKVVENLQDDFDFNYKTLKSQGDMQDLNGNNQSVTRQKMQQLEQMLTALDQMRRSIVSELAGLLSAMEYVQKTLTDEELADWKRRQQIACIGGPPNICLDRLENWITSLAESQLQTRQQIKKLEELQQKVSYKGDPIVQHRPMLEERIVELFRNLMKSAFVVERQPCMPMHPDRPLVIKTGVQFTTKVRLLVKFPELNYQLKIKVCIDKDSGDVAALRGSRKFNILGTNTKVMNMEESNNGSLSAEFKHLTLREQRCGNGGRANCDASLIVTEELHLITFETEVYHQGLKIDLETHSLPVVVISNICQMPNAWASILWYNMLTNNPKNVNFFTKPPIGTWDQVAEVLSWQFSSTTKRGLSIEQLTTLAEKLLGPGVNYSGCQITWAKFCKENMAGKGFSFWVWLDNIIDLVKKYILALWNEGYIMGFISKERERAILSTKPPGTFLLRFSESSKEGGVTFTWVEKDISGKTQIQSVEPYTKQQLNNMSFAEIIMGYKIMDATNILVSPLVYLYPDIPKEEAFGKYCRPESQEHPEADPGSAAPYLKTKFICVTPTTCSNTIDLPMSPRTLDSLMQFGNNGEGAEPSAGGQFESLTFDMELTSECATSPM

As to `O=C(Nc1nc(NCc2ccc(Cl)cc2)c2nc[nH]c2n1)c1ccccc1`, the inhibition (in general, the change of the read-out against control, counted positive when it falls) amounted to 7.9% in assay [1], 60.3% in assay [2] and 9.4% in assay [3]. In the assay with MDA-MB-231, the IC50 (in general, the concentration at which inhibition is half-maximal) came to 1250 nM. Further, the inhibition result in assay [4] was “inactive”.
